Values of other authors in article PMC7575488, “Phase 1 dose-escalation study of a novel oral PI3K/mTOR dual inhibitor, LY3023414, in patients with cancer” (Investigational New Drugs, 2020).

Settings: cited from earlier work; for Stomatitis, mucositis, and mouth sores: clinical studies with mTOR inhibitors

Structure (SMILES) | Stomatitis, mucositis, and mouth sores | Incidence of ILD (Japan, ref interim report on surveillance of everolimus-induced ILD in Japan)
CO[C@H]1C[C@@H]2CC[C@@H](C)[C@@](O)(O2)C(=O)C(=O)N2CCCC[C@H]2C(=O)O[C@H]([C@H](C)C[C@@H]2CC[C@@H](OP(C)(C)=O)[C@H](OC)C2)CC(=O)[C@H](C)/C=C(\C)[C@@H](O)[C@@H](OC)C(=O)[C@H](C)C[C@H](C)/C=C/C=C/C=C/1C [deforolimus] | 78% | 
CO[C@H]1C[C@@H]2CC[C@@H](C)[C@@](O)(O2)C(=O)C(=O)N2CCCC[C@H]2C(=O)O[C@H]([C@H](C)C[C@@H]2CC[C@@H](OCCO)[C@H](OC)C2)CC(=O)[C@H](C)/C=C(\C)[C@@H](O)[C@@H](OC)C(=O)[C@H](C)C[C@H](C)/C=C/C=C/C=C/1C [everolimus] | 41% | 17.4%
